Test results as given in US10610555B2, “Method for alleviating osteoarthritis by using composite (HL-Joint 100) of achyranthes bidentata, eucommin ulmoides oliver and pomegranate extracts, which has antiinflammatory effect caused by COX2 and PGE2 inhibition, cartilage protective effect caused by MMP-2 and -9 inhibition and cartilage …” (HLSCIENCE CO., LTD., priority 2015, dated 2020).

Experiments:
Format in all cases: in vivo
collagen type II mRNA = experiment: Osteoarthritis rat model: collagen type II mRNA expression in articular cartilage and joint capsule; details: OA rats, 200 mg/kg oral 28 days (diclofenac 2 mg/kg s.c.), mean ± SD
Experimental: (§1) The osteoarthritis-improving effect of the single or mixed formula of the pomegranate concentrate powder (PCP), the eucommia bark water extract powder (EC) and the achyranthis radix water extract powder (AR) was evaluated. As the representative osteoarthritis (OA) experimental animal model, rats with osteoarthritis (OA) induced by anterior cruciate ligament transaction and partial medial meniscectomy were used [Kim et al., 2012; Kang et al., 2014a; Moon et al., 2014; Choi et al., 2015]. […] In addition, the change in articular cartilage thickness and the number of cyclooxygenase (COX)-2- and tumor necrosis factor (TNF)-α-immunopositive cells in the tibial articular cartilage was monitored [Moore et al. 2005; Kim et al., 2012; Kang et al., 2014a; Choi et al., 2015]. Through this experiment, the anti-inflammatory effect and cartilage-regenerating effect of the pomegranate concentrate powder, the eucommia bark extract and the achyranthis radix extract were evaluated.
An adequate amount of PCP, EC or AR was dissolved in sterilized distilled water and orally administered at a dosage of 5 mL/kg from 7 days after the osteoarthritis (OA) surgery once a day for 28 days. That is to say, each of the single formulas of PCP, EC and AR and the mixed formulas of PCP and EC:AR (1:1, 1:2, 1:4, 1:6, 1:8, 2:1, 4:1, 6:1 and 8:1) was orally administered at a dosage of 200 mg/kg for 28 days. For the sham surgery (sham) and osteoarthritis (OA) control groups, only sterilized distilled water was orally administered instead of the test substances. 2 mg of diclofenac sodium (Wako Pure Chemical Ind. Ltd., Osaka, Japan) dissolved in 5 mL of sterilized physiological saline was subcutaneously administered into the back skin at a dosage of 5 mL/kg (2 mg/kg) from 7 days after the osteoarthritis (OA) surgery once a day for 28 days. The administration dosage was set to 2,000 mg/60 kg×6=200 mg/kg, corresponding to 6 times the expected dosage for human (2,000 mg) in consideration of the body surface area of the rat. […]

[1] = system: chondrogenesis-related mRNAs (collagen type II, SOX9 and aggrecan); experiment: Osteoarthritis rat model: chondrogenesis-related mRNA expression; details: diclofenac subcutaneous
Experimental: as §1
(§2) An adequate amount of PCP, EC or AR was dissolved in sterilized distilled water and orally administered at a dosage of 5 mL/kg from 7 days after the osteoarthritis (OA) surgery once a day for 28 days. That is to say, each of the single formulas of PCP, EC and AR and the mixed formulas of PCP and EC:AR (1:1, 1:2, 1:4, 1:6, 1:8, 2:1, 4:1, 6:1 and 8:1) was orally administered at a dosage of 200 mg/kg for 28 days. […]

[2] = system: rats with surgically-induced osteoarthritis (OA); experiment: Osteoarthritis rat model: BrdU-immunopositive cells (cell proliferation); details: vs OA control group
Experimental: as §1, §2

[3] = system: rats with surgically-induced osteoarthritis (OA); experiment: Osteoarthritis rat model: knee joint thickness; details: 200 mg/kg oral (diclofenac 2 mg/kg s.c.); vs OA control group
Experimental: as §1, §2

In the case of `O=C(O)Cc1ccccc1Nc1c(Cl)cccc1Cl` [Diclofenac, diclofenac sodium], the “Collagen type II mRNA expressions, Femur AC” value (collagen type II mRNA) is reported as 0.69 ± 0.10^ab, the “Collagen type II mRNA expressions, Tibia AC” value (collagen type II mRNA) is reported as 0.64 ± 0.11^ij and the “Collagen type II mRNA expressions, SM” value (collagen type II mRNA; SM not defined, text speaks of joint capsule) is reported as 2.74 ± 0.95^ij. The “expression of collagen type II, SOX9 and aggrecan mRNAs in the femoral and tibial articular cartilage” value [1] was “increased expression”, the “number of BrdU-immunopositive cells in the joint capsule” value [2] was “decrease in the number of BrdU-immunopositive cells in the joint capsule” and the knee joint thickness [3] was “significant (p<0.01 or p<0.05) decrease in knee joint thickness”.
